“And” between values parts separate entries of the source, which are not always exact repeats. Equal values may be shown once. Where a name gives a salt, the structure may show the parent alone. Read-outs that look alike come from different tables or passages of the source.
Tests used:
oral mucosa tissue = assay: Lip blanch response after topical application of 1.0 ml to lips (Example 1); type: in vivo, human
[1] = HCl titration of L-epinephrine free base in orotopical delivery vehicle: pH and appearance; type: physicochemical
Protocol: 18 hours later, the clear solution had developed a pink colour (consistent with adrenochrome formation, an oxidative epinephrine metabolite) and flocculant, re-precipitated material had appeared on the surface of the liquid.
An abrupt drop in pH occurred at pH 6.10 in which the turbidity also immediately clarified. Table 2 provides a summary of the pH values from this titration, and indicates the experimentally determined moles of HCl that were required to achieve pH 2.50 in this specific formulation

[2] = for μmols retained in oropharyngeal cavity (A × 0.24): 12.5 ml administered; for Optimum L-Epinephrine Topical Dose (μmols/cm^2): 12.5 ml, surface area 188 cm^2
Protocol: In these experiments, three human volunteer subjects were provided vials containing solution of 5 mM phenylephrine HCl dissolved in our orotopical delivery vehicle, and they were instructed to: • i) deliver the vial contents into their mouths; • ii) ii) swish the liquid in their mouths, pausing to gargle twice for five seconds; and • iii) at the specified time spit out the liquid into a glass vial.
The volume administered and the volume spit out by each test subject were recorded, and HPLC analysis of the phenylephrine concentration in the administered solution and the solutions spit out by each of the three volunteer subjects were determined.

submucosal blood vessels = tested on: submucosal blood vessels
Protocol: 2. While stirring, 2-5 N HCl was added to achieve a pH of 2.5.
3. […] The subject swished the 12.5 ml of formulation, gargling twice for 5 seconds each, for 2.0 minutes, and then spit out the formulation.

[3] = Stability of pharmaceutical composition with around 20% wt/vol oxygen (Example 9); type: physicochemical; conditions: 5 mM (0.92 mg/ml)
Protocol: The stability study samples were stored at the stability incubator chambers with various temperature and humidity conditions. At indicated time points, pulled samples were assessed on items such as Appearance, Identification, Colour of solution, Clarity of solutions, pH, Assay, Related Substances, Ethanol and Sodium Metabisulfite content for L-epinephrine solution.

squamous human skin = conditions: 3 mg/ml
[4] = Nutman et al., Crit Care Med 1994; cited from earlier work
radiation dermatitis = conditions: cited from earlier work; for relative potencies of the topically applied vasoconstrictors (suppression of radiation dermatitis): 75 μl in ethanol:water (70:30) on 4.5 cm^2 shaved skin 12 min before 17.2 Gy; for potency in comparison to epinephrine: Fahl, 2016
cancerous tissues = conditions: topical application, three xenograft tumour mice models; cited from earlier work
[5] = tested on: mucositis, dermatitis and alopecia; conditions: topically applied, animal models; cited from earlier work
[6] = 5 mM × 12.5 ml administered, one line per subject, HCl

SMILES: CNC[C@H](O)c1ccc(O)c(O)c1 [L-epinephrine]
- time to see a robust lip blanch response (oral mucosa tissue; solution at pH 2.50, 20 mM, 1.0 ml on lips): 8 min
- time to see a discernible lip blanch response (oral mucosa tissue; solution at pH 4.95, 1.0 ml on lips): ~20 min
- appearance of solution ([1]; at pH 2.50): clear and colourless
- appearance of solution ([1]; at pH 4.95): clear and colourless
- appearance of solution ([1]; pH 2.50 solution, 48 hrs later): clear and colourless
- appearance of solution ([1]; pH 4.95 solution, 18 hours later): pink colour
- share of L-epinephrine dose from the orotopical solution delivered to oral mucosa ([2]; 1.8 mg/ml or 3.6 mg/ml administered to mouths of adult humans): 20-30%
- μmols retained in oropharyngeal cavity (A × 0.24) ([2]; 10 mM (1.8 mg/ml)): 30 μmols
- Optimum L-Epinephrine Topical Dose (μmols/cm^2) ([2]; 10 mM (1.8 mg/ml)): 0.160 μmols/cm^2
- μmols retained in oropharyngeal cavity (A × 0.24) ([2]; 20 mM (3.6 mg/ml)): 60 μmols
- Optimum L-Epinephrine Topical Dose (μmols/cm^2) ([2]; 20 mM (3.6 mg/ml)): 0.320 μmols/cm^2
- lip blanching (photos) (submucosal blood vessels; 5.5 mg/ml solution on the lower lip): blanching
- lip blanch response (submucosal blood vessels; 5 minutes after initiation of gargling, 12.5 ml, pH 2.5): clear, robust blanch response
- time within which robust mucosal blanch was induced (submucosal blood vessels; four healthy volunteers, 0.9-5.5 mg/ml): 5 to 60 min
- single impurity ([3]; 40° C. for 1 month): ~1.7%
- total impurities ([3]; 40° C. for 1 month): 3.8%
- concentration of antioxidant sodium metabisulfite ([3]; 60° C. and 40° C.): decreasing trend
- decrease of concentration of L-epinephrine ([3]; 60° C. stress condition): about 18%
- sample colour ([3]; 60° C. stress condition): light brown
- single impurity ([3]; 60° C. stress condition): more than 8%
- total impurities ([3]; 60° C. stress condition): more than 17%
- duration of blanching after dermal topical application (squamous human skin): about 40 minutes
- 2N HCl added to adjust to pH 2.33 (ml/l) (L-epi conc 0.92 mg/ml): 5.36 ml/l
- pH without addition of L-epi (L-epi conc 0.92 mg/ml): 4.32
- 2N HCl added to adjust to pH 2.33 (ml/l) (L-epi conc 5.50 mg/ml): 11.88 ml/l
- pH without addition of L-epi (L-epi conc 5.50 mg/ml): 7.10
- potency versus racemic +/−epinephrine HCl [4]: twice as potent

SMILES: CNC[C@H](O)c1cccc(O)c1 [PhE-HCl, phenylephrine HCl]
- Spit Out PhE-HCl mg/ml (hplc) × ml B ([2]; 5 mM × 12.5 ml (12.8 mg) administered, one line per subject, mean in brackets, HCl): (10.59) mg/ml × ml and 9.23, 9.62 (9.42) mg/ml × ml and 8.91, 9.51 (9.21) mg/ml × ml
- % of Administered Dose Spit Out B/A × 100 [2, 6]: 74% and 72% and 83%
- % of Orotopical PhE-HCl Dose Delivered to Oral Surfaces [2, 6]: 26% and 28% and 17%
- mg PhE-HCl Actually Delivered [2, 6]: 3.3 mg and 3.6 mg and 2.2 mg

SMILES: CNC[C@H](O)c1ccc(O)c(O)c1 [epinephrine]
- relative potencies of the topically applied vasoconstrictors (suppression of radiation dermatitis) (radiation dermatitis): 1
- interference to the curative radiation effect to cancerous tissues (cancerous tissues): no interference
- prevention of mucositis, dermatitis and alopecia induced by radiation [5]: successful outcome

SMILES: NC[C@H](O)c1ccc(O)c(O)c1 [norepinephrine]
- relative potencies of the topically applied vasoconstrictors (suppression of radiation dermatitis) (radiation dermatitis): 0.5
- potency in comparison to epinephrine (radiation dermatitis): half
- interference to the curative radiation effect to cancerous tissues (cancerous tissues): no interference
- prevention of mucositis, dermatitis and alopecia induced by radiation [5]: successful outcome

SMILES: CNC[C@H](O)c1cccc(O)c1 [phenylephrine]
- relative potencies of the topically applied vasoconstrictors (suppression of radiation dermatitis) (radiation dermatitis): 0.2
- potency in comparison to epinephrine (radiation dermatitis): one fifth
- interference to the curative radiation effect to cancerous tissues (cancerous tissues): no interference
- prevention of mucositis, dermatitis and alopecia induced by radiation [5]: successful outcome

Source: patent US20250152524A1, “TOPICAL COMPOSITIONS AND METHODS” (VasoDynamics Limited, priority 2022, published 2025)
